Usually pIC50 stands for the IC50 on a negative log10 scale, so that one unit is a factor of ten.

One assay relates to NIH3T3 cells. As to the kind of experiment: 3T3 growth assay, NIH3T3C7 control cells. The assay is classed as cell-based. The note with it: Mus musculus, NIH3T3, 96 h, Table VI, 10% CS, 4 days. An excerpt: (§1) This example illustrates the ability of the exemplary compounds to inhibit receptor tyrosine kinases, such as HER2 and/or EGFR. The following target cells were used for cellular kinaseassays: NIH3T3 clone C7 (Honegger et al., supra) engineered to over-express human EGF receptor; NIH3T3 cells engineered to over-express a chimeric receptor containing the EGFR extracellular domain and the HER2 intracellular kinase domain; the human mammary carcinoma line BT474 (ATCC HTB2) expressing HER2; and the human glioblastoma line U1242 that expresses PDGFR-β. Growth assays were carried out using human mammary epithelial SKBR3 (ATCC HTB30) cells, SKOV3 (ATCC HTB77) human ovarian cancer cell line, A431 cells, MCF7 human breast carcinoma cells, MCF7 cells overexpress the HER2 kinase (MCF7-HER2), NIH3T3 cells, and NIH3T3 cells overexpressing the HER2 kinase (3T3-HER2).
The 3T3 growth assay was carried out as follows:
(1) Dulbecco's Modified Eagle Medium (D-MEM), Gibco 11965-050;
(4) Fetal Bovine Serum Certified, Gibco 16000-028;
(5) Dulbecco's Phosphate-Buffered Saline (D-PBS), Gibco 14190-029;
(6) Sulforhodamine B (SRB), Sigma S-9012. 0.4% SRB in 1% acetic acid;
(7) 10 mM Tris-base, Fisher BP152-5;
(8) 10% TCA, Trichloroacetic acid, Fisher A322-500;
(9) 96-well flat bottom plate (sterile), Corning 08-757-155;
(10) 100 ml reagent reservoir 9 (sterile), Matrix Technologies Corporation, 8086;
(11) Sterile pipet tips, Fisher 21-197-8E;
NIH3T3C7 cells in 10% CS+2 mM GLN DMEM HER2C7 cells in 2% FBS+2 mM GLN DMEM
(1) HER2C7 (engineered to express HER2) and NIH3T3C7 (as the control) cells are used for this assay. NIH3T3C7 cells are seeded at 2500 cells/well, […] in 10% CS+2 mM GLN DMEM, in a 96 well plate; HER2C7 cells are seeded at 6000 cells/well, 100 μl/well in 2% FBS+2 mM GLN DMEM, in a 96 well plate. Cells are incubated at 37° C., 5% CO2 overnight to allow for cell attachment to the plate;
(2) The test compound is added to the cells at day 2. The compounds are prepared in the appropriate growth medium (10% CS+2 mM) GLN DMEM for NIH3T3C7 cells; 2% FBS+2 mM GLN DMEM for HER2C7 cells) in a 96 well plate, and serially diluted. A total of 100 μl/well medium of the diluted compounds is added into the cells. The total volume of each well is 200 μl. Quadruplicates (wells) and 11 concentration points are applied to each compound tested.
(3) After the cells are treated with the compound for 4 days, the cells are washed with PBS and fixed with 200 μl/well ice-cold 10% TCA for one hour at 0-5° C. condition.
(4) Remove TCA and rinse wells 5 times with deionized water. Dry plates upside down with paper towels. Stain cells with 0.4% SRB at 100 μl/well for 10 minutes.
(5) Pour off SRB and rinse plate 5 times with 1% acetic acid. Dry plate completely.
(6) Solubilize the dye with 10 mM Tris-base at 100 μl/well for 10 minutes on a shaker.
(7) Read the plate at dual wavelengths at 570 nm and 630 nm on Dynatech Elisa plate reader.

In another assay the test system is SKOV3 cells. As to the kind of experiment: SKOV3 soft agar colony growth assay. In kind it is cell-based. The settings on record: Homo sapiens, SK-OV-3, 336 h, Table V, colony growth 2 weeks, read-out: Estimated IC50 Growth Assays SKOV3 cells.
From the text: as §1
SKOV3 cells also over-express HER2. These cells were plated into soft agar with a test compound and colony growth was quantified 2 weeks. later using an Omnicon colony counter.
6. Soft Agar Assay Protocol
The soft agar assay is well known in the art as a method for measuring the effects of substances on cell growth. Unless otherwise stated the soft agar assays were carried out as follows:
(1) A Water bath set at 39° C. and another water bath at 37° C.
(2) 2×assay medium is comprised of 2×Dulbecco's Modified Eagle's Medium (DMEM) (Gibco Cat. #CA400-4ANO3) supplemented by the following:
20% Fetal Bovine Serum (FBS)
Non-essential Amino Acids (1:50 from 100×stock)
(3) 1×assay medium made of 1×DMEM supplemented with 10% FBS, 1 mM sodium pyruvate, 2 mM glutamine, 10 mM HEPES, non-essential amino acid (1:100 from 100×stock).
(4) 1.6% SeaPlaque Agarose in autoclave bottle
(5) Sterile 35 mm Corning plates (FMC Bioproducts Cat. #50102)
(6) Sterile 5 ml glass pipets (individually wrapped)
(7) Sterile 15 ml and 50 ml conical centrifuge tubes
(8) Pipets and sterile tips
(9) Sterile microcentrifuge tubes
(10) Cells in T75 flasks: SKOV-3 (ACTT HTB77).
(12) Procedure for making the base layer:
(a) Have all the media warmed up in the 37° C. water bath.
(b) To make 1×of assay medium+0.8% agar: make a 1:2 (vol:vol) dilution of melted agar (cooled to 39° C.), with 2×assay medium.
(c) Keep all media with agar warm in the 39° C. water bath when not in use.
(d) Dispense 1 ml of 1×assay medium+0.8% agar into dishes and gently swirl plate to form a uniform base layer. Bubbles should be avoided.
(e) Refrigerate base layers to solidify (about 20 minutes). Base layers can be stored overnight in the refrigerator.
(13) Procedure for collecting cells:
(a) Take out one flask per cell line from the incubator; aspirate off medium; wash once with PBS and aspirate off; add 3 ml of trypsin solution. […]
(d) Colonies that are 60 microns and larger are scored positive.

Molecules are shown by their SMILES. pIC50: −log10 of the molar value.

The compound `CC(C)(C)c1cc(/C=C(\C#N)S(=O)(=O)c2ccccn2)cc(C(C)(C)C)c1O` [Compound M34, (E)-3-(3,5-di-t-Butyl-4-hydroxyphenyl)-2-[(pyrid-2-yl)sulfonyl]acrylonitrile] gave a pIC50 in the assay with NIH3T3 cells of 4.40. In turn, `CC(C)c1cc(/C=C(\C#N)S(=O)(=O)c2ccccn2)cc(C(C)C)c1O` [Compound M26] gave a pIC50 in the assay with NIH3T3 cells below 4.00. Consider `CC(C)(C)c1cc(/C=C(\C#N)C(N)=S)cc(C(C)(C)C)c1O` [Compound M11], for which the figures for the pIC50 in the assay with SKOV3 cells and in the assay with NIH3T3 cells were 6.30 and 4.12, respectively. `CC(C)(C)c1cc(/C=C(\C#N)S(=O)(=O)c2ccccc2)cc(C(C)(C)C)c1O` [Compound M33, (E)-3-(3,5-di-t-Butyl-4-hydroxyphenyl)-2-(phenylsulfonyl)acrylonitrile] showed a pIC50 in the assay with NIH3T3 cells of 4.46.

With `N#C/C(=C\c1ccc(O)c(O)c1)C(=S)NCc1ccccc1` [Compound M13], the pIC50 in the assay on SKOV3 cells was 4.70. On the same count and under the same terms, the figure for `N#C/C(=C\c1ccc(O)c(O)c1)C(=O)Nc1cccc(C(F)(F)F)c1` [Compound M15] is 4.77. As to `CC(C)c1cc(/C=C(\C#N)C(=O)NCCCc2ccccc2)cc(C(C)C)c1O` [Compound M21, (E)-3-(3,5-Diisopropyl-4-hydroxyphenyl)-2-[(3-phenyl-n-propyl)aminocarbonyl]acrylonitrile], the pIC50 in the assay on NIH3T3 cells was below 4.00. Same read-out and setting: the figure for `Cc1cc(/C=C(\C#N)S(=O)(=O)c2ccccn2)cc(C)c1O` [Compound M32] is below 4.00. In the case of `N#C/C(=C\c1cc(O)c(O)c(I)c1)C(=O)NCCCc1ccccc1` [Compound M16], the pIC50 in the assay on SKOV3 cells was 5.35. Consider `Cc1cc(/C=C(\C#N)S(=O)(=O)c2ccccc2)cc(C)c1O` [Compound M31], for which the pIC50 in the assay on NIH3T3 cells was below 4.00. Still for that read-out and setting: the value for `CC(C)c1cc(/C=C(\C#N)S(=O)(=O)CC#N)cc(C(C)C)c1O` [Compound M27] was below 4.00; that for `CC(C)c1cc(/C=C(\C#N)S(=O)(=O)/C(C#N)=C/c2cc(C(C)C)c(O)c(C(C)C)c2)cc(C(C)C)c1O` [Compound M29] was below 4.00. The same measure, in the same setting: the figure for `CC(C)c1cc(/C=C(\C#N)S(=O)(=O)c2ccccc2)cc(C(C)C)c1O` [Compound M30] is 4.15; for `CC(C)(C)c1cc(/C=C(\C#N)C(=O)NCCCc2ccccc2)cc(C(C)(C)C)c1O` [Compound M20, (E)-3-(3,5-di-t-Butyl-4-hydroxyphenyl)-2-[(3-phenyl-n-propyl)aminocarbonyl]acrylonitrile] it is 4.05. With `CC(C)(C)c1cc(/C=C(\C#N)C(=O)Nc2ccc(C(F)(F)F)cc2)cc(C(C)(C)C)c1O` [Compound M35, (E)-3-(3,5-di-t-Butyl-4-hydroxyphenyl)-2-[(4-trifluoromethyl)phenylaminocarbonyl]acrylonitrile], in the assay on NIH3T3 cells, the pIC50 is 4.74.

The record behind these values is patent publication US6596878B2, “Methods and compositions for inhibiting cell proliferative disorders” (Yissum Research & Development Company of the Hebrew …, priority 1994, dated 2003).
